# Where two headings read alike, the source gives them in different places.
# Assays:
# [1] = test system: human pulmonary microvascular endothelial cells (HPMEC); experiment: DMOG-induced apoptosis in HPMEC; format: cell-based
# Text: The effects of various TSPO ligands on HPMEC under DMOG (a permeable prolyl-4-hydroxylase inhibitor which upregulates hypoxia-inducible factor and causes apoptosis) stimulation were investigated.
# TSPO = biological target: T1, TSPO (Rattus norvegicus, UniProt P16257); experiment: 11C-PBR28 PET imaging, ligand specificity tested by XBD-173 pre-treatment; format: in vivo; details: rats treated with XBD-173 prior to PET imaging
# T1 construct: from tissue; host or cells: lungs and right ventricle of living control and monocrotaline-treated rats (in vivo PET)
# Protocol: PET imaging was performed in healthy control and MCT 4 weeks rats (60 mg/kg subcutaneous injection). The uptake of TSPO PET tracer, ^11C-PBR28, was measured in the lungs and RV.
# MCT rat [2] = experiment: MCT rat PH model: pulmonary arterial pressure, RVSP, RV hypertrophy, systemic blood pressure; format: in vivo
# Protocol: Modulation of TSPO by XBD-173 was assessed in MCT rats. […] Heart and lung glucose metabolism were also assessed by FDG-PET imaging. […] This attenuation was dose-dependent manner. […] (data not shown).
# MCT rat [3] = experiment: MCT rat PH model: pulmonary vascular remodelling and CD68+ macrophage infiltration (histology); format: in vivo
# Protocol: Modulation of TSPO by XBD-173 was assessed in MCT rats. […] Heart and lung glucose metabolism were also assessed by FDG-PET imaging.
# MCT rat [4] = experiment: MCT rat PH model: MRI of RV structure and function; format: in vivo
# MCT rat [5] = experiment: MCT rat PH model: RV immunofluorescence (WGA cardiomyocyte size, CD31 micro-vessels); format: in vivo
# Text: Bar charts illustrating the quantitative data from immunofluorescence staining. ***p<0.001.
# Immunofluorescence staining was used to examine the RV structural changes. The cardiomyocyte size was quantified by wheat germ agglutinin (WGA) and the number of micro-vessels by CD31 at RV insertion point.
# SuHx rat = SuHx rat model: PAP, RV hypertrophy, systolic blood pressure; format: in vivo; details: SuHx rats, 2 mg/kg twice a day for two weeks
# [6] = test system: Human pulmonary artery smooth muscle cells (PASMCs); experiment: PDGF- and hypoxia-stimulated proliferation of PASMCs; format: cell-based
# HPAECs = experiment: TNF-α stimulated HPAEC activation: E-selectin ELISA and cytokine array; format: cell-based, human; details: 10 nM and 50 nM
# Protocol: HPAECs were pre-treated with XBD173 (10 nM and 50 nM) for 24 hours before TNF-α (10 ng/ml) stimulation for 8 hours. At the end of the experiment, cell numbers were counted and cell culture supernatants collected (n=4 per group, control, TNF-α, TNF-α with XBD 10 nM and 50 nM treatments) for cytokine assay using the proteome profiler human cytokine array kit (R&D systems, ARY005B) and E-selectin ELISA assay. […] Further, XBD173 observably attenuated release of multiple cytokines and chemokines (CXCL-10, RANTES, IL-6, IL-21, IL-18, CXCL11, G-CSF and CXCL12) from HPAEC in response to TNF-α stimulation.
# HPAEC [7] = experiment: ROS production in TNF-α stimulated HPAEC (CellROX Green); format: cell-based, human; details: 10 nM and 50 nM; P<0.001; levels similar to TNF-α untreated control
# Protocol: (§1) Mitochondrial membrane potential was determined using 20 nM Tetramethylrhodamine, Ethyl Ester, Perchlorate (TMRE; Life technologies, T669). ROS production was detected using 5 uM CellROX Green (Life technologies, C10444). 1 ug/mL Hoechst 33342 (Life technologies, H1399) was added for nucleus staining. Images were obtained with a Zeiss Axio Observer inverted widefield microscope. […] In addition, XBD173 signifantly (P<0.001) increased the mitochondrial membrane potentials following TNF-α stimulation, with the mitochondrial membrane potentials with XBD173 treatment recovering to similar levels to those seen for the TNF-α untreated control.
# HPAEC [8] = experiment: Mitochondrial membrane potential in TNF-α stimulated HPAEC (TMRE); format: cell-based, human; details: 10 nM and 50 nM; P<0.001; recovering to levels similar to TNF-α untreated control
# Protocol: as §1
# human TSPO [9] = biological target: human TSPO (Homo sapiens, UniProt P30536); details: cited from earlier work
# human TSPO [10] = biological target: human TSPO (Homo sapiens, UniProt P30536, T147A); details: human subjects with high-affinity binding of their TSPO; read-out: mean Kd, high affinity binders; cited from earlier work
# [11] = 2 mg/Kg once and twice a day, 2-4 weeks
# Chain of human TSPO (Homo sapiens, UniProt P30536, T147A) (P30536 2-169 T147A): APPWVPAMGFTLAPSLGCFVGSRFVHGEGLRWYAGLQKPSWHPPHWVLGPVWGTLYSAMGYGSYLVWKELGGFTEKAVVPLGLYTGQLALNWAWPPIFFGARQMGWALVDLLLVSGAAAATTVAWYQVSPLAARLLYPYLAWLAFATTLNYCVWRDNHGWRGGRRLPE
compound,measurement,setting,value
CCNC1=Nc2ccc(Cl)cc2C(C)(c2ccccc2)O1 (stereo not drawn) [Etifoxine],DMOG-induced apoptotic effects in HPMECs,"[1]; FIG. 12F, 10 uM",reversed
CC(=O)N(Cc1ccccc1O[11CH3])c1cnccc1Oc1ccccc1 [PBR28],DMOG-induced apoptotic effects in HPMECs,"[1]; FIG. 12D, 5 nM",reversed
CCC(C)N(C)C(=O)c1cc2ccccc2c(-c2ccccc2Cl)n1 (stereo not drawn) [PK95111],DMOG-induced apoptotic effects in HPMECs,"[1]; FIG. 12B, 3 nM, 30 nM and 300 nM",reversed
CN1C(=O)CN=C(c2ccc(Cl)cc2)c2cc(Cl)ccc21 [Ro 5-4864],DMOG-induced apoptotic effects in HPMECs,"[1]; FIG. 12E, 10 nM",reversed
CCOC(=O)C1=C[C@]2(CC)CCCN3CCc4c(n1c1ccccc41)[C@@H]32 [Vinpocetine],DMOG-induced apoptotic effects in HPMECs,"[1]; FIG. 12C, 800 nM",reversed
"CCN(Cc1ccccc1)C(=O)Cn1c(=O)n(C)c2cnc(-c3ccccc3)nc21 [XBD-173, N-Ethyl-7,8-dihydro-7-methyl-8-oxo-2-phenyl-N-(phenylmethyl)-9H-purine-9-acetamide]",PBR28 lung signals (11C-PBR28 PET),TSPO,blocked
same,RV/body weight (RV/BW),MCT rat [2]; [11],attenuated
same,RVSP (RV catheterisation),MCT rat [2]; [11],attenuated
same,"RVH (RV/LV+sp ratio, dissected heart tissue)","MCT rat [2]; 2 mg/Kg once and twice a day, 2-4 weeks, vs 57.30 untreated MCT",40.30
same,pulmonary arterial pressure (PAP),"MCT rat [2]; 2 mg/Kg once and twice a day, treatment from 2 weeks to 4 weeks, vs 45.37 untreated MCT",27.23 mmHg
same,systemic blood pressure,MCT rat [2]; data not shown,no significant effect
same,"inflammatory cell (CD68, macrophage) infiltration",MCT rat [3]; MCT rat lung,attenuated
same,pulmonary vascular remodelling (% of muscularised vessels),"MCT rat [3]; MCT rat, 2 mg/Kg once and twice a day, 2-4 weeks, vs 75.24 untreated MCT",53.57%
same,RV cardiac index (RVCI),MCT rat [4],restoring
same,"RV dilation (RV end diastolic volume index, RVEDVI)",MCT rat [4],significantly reduced
same,RV ejection fraction (RVEF),MCT rat [4],restoring
same,RV hypertrophy as RV mass index (RVMI),MCT rat [4],reduced
same,RV hypertrophy as ventricular mass index (VMI),MCT rat [4],reduced
same,ventricular-vascular coupling (Ees/Ea),MCT rat [4],restoring
same,"RV cardiomyocyte hypertrophy (myocyte size, WGA)",MCT rat [5]; MCT rat RV,attenuated
same,RV capillary density (CD31 micro-vessels),MCT rat [5]; MCT rat RV insertion point,increased
same,RV hypertrophy,SuHx rat,significant decrease
same,pulmonary arterial pressure (PAP),SuHx rat,significant decrease
same,systemic blood pressure,SuHx rat,no significant effect
same,PDGF-stimulated proliferation of PASMCs,[6]; PDGF stimulus,attenuated
same,hypoxia-stimulated proliferation of PASMCs,[6]; hypoxia stimulus (O2=2%),attenuated
same,DMOG-induced apoptotic effects in HPMECs,"[1]; Example 4, FIG. 11",reversed
same,DMOG-induced apoptotic effects in HPMECs,"[1]; FIG. 12A, 10 nM, 50 nM and 100 nM",reversed
same,activation of HPAECs by TNF-α (E-selectin expression),"HPAECs; 24 hours pre-treatment, TNF-α 10 ng/ml 8 hours, P<0.05",reduced
same,CXCL11 release,HPAECs; TNF-α stimulation,attenuated
same,CXCL12 release,HPAECs; TNF-α stimulation,attenuated
same,CXCL-10 release,HPAECs; TNF-α stimulation,attenuated
same,G-CSF release,HPAECs; TNF-α stimulation,attenuated
same,IL-6 release,HPAECs; TNF-α stimulation,attenuated
same,IL-18 release,HPAECs; TNF-α stimulation,attenuated
same,IL-21 release,HPAECs; TNF-α stimulation,attenuated
same,RANTES release,HPAECs; TNF-α stimulation,attenuated
same,ROS production following TNF-α stimulation,HPAEC [7],reduced
same,mitochondrial membrane potentials following TNF-α stimulation,HPAEC [8],increased
same,Kd,"human TSPO [9]; human subjects with both high- and low-affinity binding sites, read-out: mean Kd, mixed affinity binders",~11 nM
same,Kd,"human TSPO [9]; human subjects with low-affinity binding of their TSPO, read-out: mean Kd, low affinity binders",~30 nM
same,Kd,human TSPO [10],~2.5 nM

# From patent US12691121B2, “Treatment of pulmonary arterial hypertension” (IMPERIAL COLLEGE INNOVATIONS LIMITED, priority 2020, dated 2026)
